Results: the kinase profiling compilation of Christmann-Franck et al. (2016)

What was measured:
Test in all cases: radiometric filter-binding kinase assay, Kinase HotSpot
Conditions in all cases: compound 0.5 µM; ATP 10 µM
ADRBK1 (human) = ADRBK1 (human) (UniProt P25098)
CAMK1G (human) = CAMK1G (human) (UniProt Q96NX5)
CAMK2D (human) = CAMK2D (human) (UniProt Q13557)
CAMK2G (human) = CAMK2G (human) (UniProt Q13555)
CDC42BPA (human) = CDC42BPA (human) (UniProt Q5VT25)
CSNK1G2 (human) = CSNK1G2 (human) (UniProt P78368)
DYRK1B (human) = DYRK1B (human) (UniProt Q9Y463)
EPHA1 (human) = EPHA1 (human) (UniProt P21709)
EPHA1 (human), sequence (P21709 whole entry, looked up): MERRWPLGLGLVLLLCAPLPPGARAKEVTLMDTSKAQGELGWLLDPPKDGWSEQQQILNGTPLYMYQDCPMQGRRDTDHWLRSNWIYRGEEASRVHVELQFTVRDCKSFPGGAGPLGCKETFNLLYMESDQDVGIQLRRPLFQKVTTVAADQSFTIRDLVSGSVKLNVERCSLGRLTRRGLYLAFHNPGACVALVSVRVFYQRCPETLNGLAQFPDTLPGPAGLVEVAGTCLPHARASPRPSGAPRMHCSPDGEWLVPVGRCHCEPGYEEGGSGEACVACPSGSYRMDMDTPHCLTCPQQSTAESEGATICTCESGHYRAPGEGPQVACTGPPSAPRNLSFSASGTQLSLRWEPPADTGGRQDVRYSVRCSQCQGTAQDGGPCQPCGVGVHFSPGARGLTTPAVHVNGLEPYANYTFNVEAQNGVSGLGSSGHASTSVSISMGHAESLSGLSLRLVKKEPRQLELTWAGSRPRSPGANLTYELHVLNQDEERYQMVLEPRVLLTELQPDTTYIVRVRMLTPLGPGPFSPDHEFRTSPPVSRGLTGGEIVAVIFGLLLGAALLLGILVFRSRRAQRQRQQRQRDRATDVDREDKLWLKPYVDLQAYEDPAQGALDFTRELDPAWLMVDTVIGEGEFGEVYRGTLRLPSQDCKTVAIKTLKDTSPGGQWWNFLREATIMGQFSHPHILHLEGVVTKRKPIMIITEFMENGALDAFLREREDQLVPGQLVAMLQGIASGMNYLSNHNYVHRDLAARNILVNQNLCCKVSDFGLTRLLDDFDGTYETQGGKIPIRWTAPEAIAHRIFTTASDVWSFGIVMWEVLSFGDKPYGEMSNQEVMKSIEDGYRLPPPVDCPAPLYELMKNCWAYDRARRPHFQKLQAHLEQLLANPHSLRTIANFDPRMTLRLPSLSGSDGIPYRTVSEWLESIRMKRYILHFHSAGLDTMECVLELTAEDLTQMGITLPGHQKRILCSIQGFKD

EPHA7 (human) = EPHA7 (human) (UniProt Q15375)
FES (human) = FES (human) (UniProt P07332)
FRK (human) = FRK (human) (UniProt P42685)
FRK (human), sequence (P42685 whole entry, looked up): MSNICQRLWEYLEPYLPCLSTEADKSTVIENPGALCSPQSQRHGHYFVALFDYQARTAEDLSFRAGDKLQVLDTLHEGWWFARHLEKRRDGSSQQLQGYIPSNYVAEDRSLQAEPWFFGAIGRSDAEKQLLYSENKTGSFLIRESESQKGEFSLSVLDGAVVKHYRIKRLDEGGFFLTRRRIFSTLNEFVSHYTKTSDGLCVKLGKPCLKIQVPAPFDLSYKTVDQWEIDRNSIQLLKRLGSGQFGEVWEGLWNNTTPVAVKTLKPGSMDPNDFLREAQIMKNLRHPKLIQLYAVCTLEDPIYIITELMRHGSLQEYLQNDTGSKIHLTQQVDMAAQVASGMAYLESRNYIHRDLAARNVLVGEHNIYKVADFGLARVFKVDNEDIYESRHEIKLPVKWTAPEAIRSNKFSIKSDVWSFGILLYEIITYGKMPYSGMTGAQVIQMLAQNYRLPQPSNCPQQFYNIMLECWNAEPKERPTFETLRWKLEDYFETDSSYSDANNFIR

GSK3B (human) = GSK3B (human) (UniProt P49841)
IKBKB (human) = IKBKB (human) (UniProt O14920)
IKBKE (human) = IKBKE (human) (UniProt Q14164)
MAP4K4 (human) = MAP4K4 (human) (UniProt O95819)
MAPK9 (human) = MAPK9 (human) (UniProt P45984)
MARK1 (human) = MARK1 (human) (UniProt Q9P0L2)
MATK (human) = MATK (human) (UniProt P42679)
MET (human) = MET (human) (UniProt P08581)
MST4 (human) = MST4 (human) (UniProt Q9P289)
MUSK (human) = MUSK (human) (UniProt O15146)
NEK11 (human) = NEK11 (human) (UniProt Q8NG66)
NEK7 (human) = NEK7 (human) (UniProt Q8TDX7)
NEK7 (human), sequence (Q8TDX7 whole entry, looked up): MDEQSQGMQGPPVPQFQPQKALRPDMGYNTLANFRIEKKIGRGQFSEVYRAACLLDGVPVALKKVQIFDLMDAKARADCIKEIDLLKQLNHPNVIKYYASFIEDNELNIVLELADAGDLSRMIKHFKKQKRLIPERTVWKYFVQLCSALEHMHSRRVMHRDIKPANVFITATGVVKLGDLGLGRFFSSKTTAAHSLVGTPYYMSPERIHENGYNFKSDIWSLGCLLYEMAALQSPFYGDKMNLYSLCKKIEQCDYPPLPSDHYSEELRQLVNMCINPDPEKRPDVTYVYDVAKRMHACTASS

NEK9 (human) = NEK9 (human) (UniProt Q8TD19)
NUAK1 (human) = NUAK1 (human) (UniProt O60285)
OXSR1 (human) = OXSR1 (human) (UniProt O95747)
OXSR1 (human), sequence (O95747 whole entry, looked up): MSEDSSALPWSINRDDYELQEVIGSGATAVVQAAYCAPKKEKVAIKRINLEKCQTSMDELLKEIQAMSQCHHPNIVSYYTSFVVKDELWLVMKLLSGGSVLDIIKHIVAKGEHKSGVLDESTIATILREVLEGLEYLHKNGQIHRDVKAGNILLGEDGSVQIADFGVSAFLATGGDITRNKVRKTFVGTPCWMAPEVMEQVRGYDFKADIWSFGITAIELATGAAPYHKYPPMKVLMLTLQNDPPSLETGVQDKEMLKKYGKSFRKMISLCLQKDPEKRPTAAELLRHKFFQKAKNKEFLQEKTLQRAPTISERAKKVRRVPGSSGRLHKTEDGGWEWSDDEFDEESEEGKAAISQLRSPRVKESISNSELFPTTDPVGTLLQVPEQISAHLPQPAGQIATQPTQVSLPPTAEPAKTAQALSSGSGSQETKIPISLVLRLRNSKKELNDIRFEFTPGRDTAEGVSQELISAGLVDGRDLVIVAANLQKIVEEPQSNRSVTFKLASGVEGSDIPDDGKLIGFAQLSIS

PAK1 (human) = PAK1 (human) (UniProt Q13153)
PAK1 (human), sequence (Q13153 whole entry, looked up): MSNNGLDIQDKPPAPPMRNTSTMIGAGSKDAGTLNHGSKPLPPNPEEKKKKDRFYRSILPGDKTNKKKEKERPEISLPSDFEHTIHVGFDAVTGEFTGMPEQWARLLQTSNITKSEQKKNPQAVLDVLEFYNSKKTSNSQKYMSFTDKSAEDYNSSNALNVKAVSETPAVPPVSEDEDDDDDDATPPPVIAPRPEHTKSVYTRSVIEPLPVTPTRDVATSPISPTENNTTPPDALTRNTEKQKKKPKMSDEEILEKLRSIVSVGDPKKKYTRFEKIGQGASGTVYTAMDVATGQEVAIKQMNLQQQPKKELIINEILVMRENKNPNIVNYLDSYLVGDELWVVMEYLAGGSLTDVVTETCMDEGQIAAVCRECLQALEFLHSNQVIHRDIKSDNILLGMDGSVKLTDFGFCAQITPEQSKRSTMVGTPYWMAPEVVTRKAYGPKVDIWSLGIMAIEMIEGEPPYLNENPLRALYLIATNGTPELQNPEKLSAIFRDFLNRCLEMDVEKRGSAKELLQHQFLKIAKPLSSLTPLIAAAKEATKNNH

PAK3 (human) = PAK3 (human) (UniProt O75914)
PIM2 (human) = PIM2 (human) (UniProt Q9P1W9)
PRKCD (human) = PRKCD (human) (UniProt Q05655)
PRKCD (human), sequence (Q05655 whole entry, looked up): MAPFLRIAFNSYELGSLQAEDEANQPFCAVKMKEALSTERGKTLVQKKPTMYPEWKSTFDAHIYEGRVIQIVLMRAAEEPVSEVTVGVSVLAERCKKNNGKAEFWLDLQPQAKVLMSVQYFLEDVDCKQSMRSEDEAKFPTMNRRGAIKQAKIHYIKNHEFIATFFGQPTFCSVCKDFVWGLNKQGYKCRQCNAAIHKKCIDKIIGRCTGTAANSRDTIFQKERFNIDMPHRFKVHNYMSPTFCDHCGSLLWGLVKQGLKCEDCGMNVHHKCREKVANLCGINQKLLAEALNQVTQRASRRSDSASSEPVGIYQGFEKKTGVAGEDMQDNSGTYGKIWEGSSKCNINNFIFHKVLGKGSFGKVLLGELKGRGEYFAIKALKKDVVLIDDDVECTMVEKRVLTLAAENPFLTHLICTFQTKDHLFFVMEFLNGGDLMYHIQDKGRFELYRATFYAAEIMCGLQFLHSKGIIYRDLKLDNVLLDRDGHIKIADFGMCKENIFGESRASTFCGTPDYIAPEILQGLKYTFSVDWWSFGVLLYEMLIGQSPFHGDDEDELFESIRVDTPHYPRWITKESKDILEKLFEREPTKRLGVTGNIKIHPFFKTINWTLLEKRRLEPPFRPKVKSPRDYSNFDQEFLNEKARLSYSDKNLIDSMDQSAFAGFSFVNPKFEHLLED

PTK2 (human) = PTK2 (human) (UniProt Q05397)
PTK2B (human) = PTK2B (human) (UniProt Q14289)
PTK2B (human), sequence (Q14289 whole entry, looked up): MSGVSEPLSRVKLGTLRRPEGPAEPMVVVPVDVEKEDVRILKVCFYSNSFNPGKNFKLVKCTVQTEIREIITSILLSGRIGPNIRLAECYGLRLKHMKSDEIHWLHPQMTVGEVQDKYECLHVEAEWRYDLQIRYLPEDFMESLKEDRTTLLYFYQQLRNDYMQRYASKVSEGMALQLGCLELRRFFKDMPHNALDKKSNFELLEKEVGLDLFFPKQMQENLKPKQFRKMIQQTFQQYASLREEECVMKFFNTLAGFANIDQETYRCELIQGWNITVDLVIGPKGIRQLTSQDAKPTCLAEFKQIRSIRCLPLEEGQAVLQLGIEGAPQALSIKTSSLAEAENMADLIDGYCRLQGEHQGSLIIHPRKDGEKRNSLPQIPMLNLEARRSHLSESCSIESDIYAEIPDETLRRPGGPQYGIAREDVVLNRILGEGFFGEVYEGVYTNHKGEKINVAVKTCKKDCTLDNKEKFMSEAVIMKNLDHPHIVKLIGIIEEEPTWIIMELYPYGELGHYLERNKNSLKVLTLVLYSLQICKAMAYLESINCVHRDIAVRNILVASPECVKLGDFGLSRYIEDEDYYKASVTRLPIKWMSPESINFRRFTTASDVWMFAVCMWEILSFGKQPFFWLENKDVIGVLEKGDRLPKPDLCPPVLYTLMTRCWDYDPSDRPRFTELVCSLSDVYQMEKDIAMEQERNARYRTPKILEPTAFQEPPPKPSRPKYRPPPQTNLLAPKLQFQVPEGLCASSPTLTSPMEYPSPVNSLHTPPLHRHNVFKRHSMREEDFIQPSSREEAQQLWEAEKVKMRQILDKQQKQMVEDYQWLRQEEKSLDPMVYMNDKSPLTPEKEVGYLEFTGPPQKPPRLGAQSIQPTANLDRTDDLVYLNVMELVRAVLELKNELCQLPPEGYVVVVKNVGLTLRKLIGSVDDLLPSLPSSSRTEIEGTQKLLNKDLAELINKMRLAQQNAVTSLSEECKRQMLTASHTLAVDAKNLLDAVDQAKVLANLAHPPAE

PTK6 (human) = PTK6 (human) (UniProt Q13882)
RET (human) = RET (human) (UniProt P07949)
ROCK2 (human) = ROCK2 (human) (UniProt O75116)
RPS6KB2 (human) = RPS6KB2 (human) (UniProt Q9UBS0)
SRMS (human) = SRMS (human) (UniProt Q9H3Y6)
STK11 (human) = STK11 (human) (UniProt Q15831)
STK3 (human) = STK3 (human) (UniProt Q13188)
TAOK2 (human) = TAOK2 (human) (UniProt Q9UL54)
TSSK2 (human) = TSSK2 (human) (UniProt Q96PF2)
ULK1 (human) = ULK1 (human) (UniProt O75385)

CAMK2D (human), sequence (Q13557 whole entry, looked up): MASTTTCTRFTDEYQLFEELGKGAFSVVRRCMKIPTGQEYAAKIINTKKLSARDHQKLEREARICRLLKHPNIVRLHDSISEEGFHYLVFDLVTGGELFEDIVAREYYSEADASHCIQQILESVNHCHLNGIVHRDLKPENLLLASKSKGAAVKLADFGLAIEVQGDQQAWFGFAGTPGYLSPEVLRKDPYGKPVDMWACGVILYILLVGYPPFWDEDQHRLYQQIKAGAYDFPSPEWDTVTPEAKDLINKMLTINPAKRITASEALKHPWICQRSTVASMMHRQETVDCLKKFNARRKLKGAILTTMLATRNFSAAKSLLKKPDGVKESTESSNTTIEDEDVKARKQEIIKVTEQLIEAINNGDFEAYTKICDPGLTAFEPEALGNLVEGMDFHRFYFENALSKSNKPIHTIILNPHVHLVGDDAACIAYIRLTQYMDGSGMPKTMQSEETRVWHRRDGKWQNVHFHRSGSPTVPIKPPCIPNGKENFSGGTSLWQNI

For O=C1Cc2c([nH]c3ccc([N+](=O)[O-])cc23)-c2ccccc2N1, the residual activity (ADRBK1 (human)) was 91.8%, the residual activity (CAMK1G (human)) was 96% and the residual activity (CAMK2D (human)) was 79.3%. The residual activity (CAMK2G (human)) was 94.5%, the residual activity (CDC42BPA (human)) was 96.2% and the residual activity (CSNK1G2 (human)) was 91.7%. The residual activity (DYRK1B (human)) was 87.5%, the residual activity (EPHA1 (human)) was 94.8% and the residual activity (EPHA7 (human)) was 95%. It also gave a residual activity (FES (human)) of 46.3%, a residual activity (FRK (human)) of 97.2% and a residual activity (GSK3B (human)) of 2.68%. For the same compound, the residual activity (IKBKB (human)) was 102%, the residual activity (IKBKE (human)) was 93.4% and the residual activity (MAP4K4 (human)) was 4.47%. For the same compound, the residual activity (MAPK9 (human)) was 97.2%, the residual activity (MARK1 (human)) was 62.5% and the residual activity (MATK (human)) was 98.9%. It also gave a residual activity (MET (human)) of 117%, a residual activity (MST4 (human)) of 78.6% and a residual activity (MUSK (human)) of 68.5%. The residual activity (NEK11 (human)) was 95.4%, the residual activity (NEK7 (human)) was 89.7% and the residual activity (NEK9 (human)) was 99.3%. For the same compound, the residual activity (NUAK1 (human)) was 12%, the residual activity (OXSR1 (human)) was 97% and the residual activity (PAK1 (human)) was 36.7%. It also gave a residual activity (PAK3 (human)) of 80.4%, a residual activity (PIM2 (human)) of 113% and a residual activity (PRKCD (human)) of 79.8%. It also gave a residual activity (PTK2 (human)) of 88.1%, a residual activity (PTK2B (human)) of 82.9% and a residual activity (PTK6 (human)) of 92.7%. For the same compound, the residual activity (RET (human)) was 81.6%, the residual activity (ROCK2 (human)) was 82% and the residual activity (RPS6KB2 (human)) was 96.5%. It also gave a residual activity (SRMS (human)) of 92.9%, a residual activity (STK11 (human)) of 90.2% and a residual activity (STK3 (human)) of 70.3%. The residual activity (TAOK2 (human)) was 88.9%, the residual activity (TSSK2 (human)) was 88.3% and the residual activity (ULK1 (human)) was 85.1%.
O=C(NC(NC(=S)Nc1ccc(F)c([N+](=O)[O-])c1)C(Cl)(Cl)Cl)C(c1ccccc1)c1ccccc1 (stereo unspecified) showed a residual activity (ADRBK1 (human)) of 79.5%, a residual activity (CAMK1G (human)) of 102% and a residual activity (CAMK2D (human)) of 102%. For the same compound, the residual activity (CAMK2G (human)) was 107%, the residual activity (CDC42BPA (human)) was 111% and the residual activity (CSNK1G2 (human)) was 98.3%. The residual activity (DYRK1B (human)) was 103%, the residual activity (EPHA1 (human)) was 88.1% and the residual activity (EPHA7 (human)) was 109%. For the same compound, the residual activity (FES (human)) was 104%, the residual activity (FRK (human)) was 103% and the residual activity (GSK3B (human)) was 109%. For the same compound, the residual activity (IKBKB (human)) was 102%, the residual activity (IKBKE (human)) was 106% and the residual activity (MAP4K4 (human)) was 92.7%. It also gave a residual activity (MAPK9 (human)) of 88.6%, a residual activity (MARK1 (human)) of 101% and a residual activity (MATK (human)) of 96.5%. The residual activity (MET (human)) was 101%, the residual activity (MST4 (human)) was 89.3% and the residual activity (MUSK (human)) was 106%. It also gave a residual activity (NEK11 (human)) of 92.2%, a residual activity (NEK7 (human)) of 102% and a residual activity (NEK9 (human)) of 110%. For the same compound, the residual activity (NUAK1 (human)) was 95.3%, the residual activity (OXSR1 (human)) was 98.3% and the residual activity (PAK1 (human)) was 86%. It also gave a residual activity (PAK3 (human)) of 91.9%, a residual activity (PIM2 (human)) of 117% and a residual activity (PRKCD (human)) of 91.2%. For the same compound, the residual activity (PTK2 (human)) was 113%, the residual activity (PTK2B (human)) was 102% and the residual activity (PTK6 (human)) was 87.8%. The residual activity (RET (human)) was 103%, the residual activity (ROCK2 (human)) was 109% and the residual activity (RPS6KB2 (human)) was 99.3%. For the same compound, the residual activity (SRMS (human)) was 96.9%, the residual activity (STK11 (human)) was 94.2% and the residual activity (STK3 (human)) was 107%. For the same compound, the residual activity (TAOK2 (human)) was 103%, the residual activity (TSSK2 (human)) was 92.7% and the residual activity (ULK1 (human)) was 99.1%.
Nc1n[nH]c2nnc(-c3c(-c4ccccc4)nn4ccccc34)cc12 gave a residual activity (ADRBK1 (human)) of 95%, a residual activity (CAMK1G (human)) of 99.2% and a residual activity (CAMK2D (human)) of 96.5%. The residual activity (CAMK2G (human)) was 96.7%, the residual activity (CDC42BPA (human)) was 89.7% and the residual activity (CSNK1G2 (human)) was 93.7%. For the same compound, the residual activity (DYRK1B (human)) was 101%, the residual activity (EPHA1 (human)) was 92.6% and the residual activity (EPHA7 (human)) was 99.5%. It also gave a residual activity (FES (human)) of 97.8%, a residual activity (FRK (human)) of 101% and a residual activity (GSK3B (human)) of 109%. It also gave a residual activity (IKBKB (human)) of 115%, a residual activity (IKBKE (human)) of 95.5% and a residual activity (MAP4K4 (human)) of 62%. The residual activity (MAPK9 (human)) was 48.4%, the residual activity (MARK1 (human)) was 98% and the residual activity (MATK (human)) was 95.6%. For the same compound, the residual activity (MET (human)) was 95%, the residual activity (MST4 (human)) was 75.9% and the residual activity (MUSK (human)) was 96.8%. The residual activity (NEK11 (human)) was 95.1%, the residual activity (NEK7 (human)) was 95.3% and the residual activity (NEK9 (human)) was 93.4%. The residual activity (NUAK1 (human)) was 92.5%, the residual activity (OXSR1 (human)) was 102% and the residual activity (PAK1 (human)) was 91.9%. It also gave a residual activity (PAK3 (human)) of 100%, a residual activity (PIM2 (human)) of 91.7% and a residual activity (PRKCD (human)) of 31.2%. For the same compound, the residual activity (PTK2 (human)) was 99.2%, the residual activity (PTK2B (human)) was 95.4% and the residual activity (PTK6 (human)) was 90.8%. For the same compound, the residual activity (RET (human)) was 93.7%, the residual activity (ROCK2 (human)) was 89.6% and the residual activity (RPS6KB2 (human)) was 104%. For the same compound, the residual activity (SRMS (human)) was 93%, the residual activity (STK11 (human)) was 91.8% and the residual activity (STK3 (human)) was 102%. For the same compound, the residual activity (TAOK2 (human)) was 101%, the residual activity (TSSK2 (human)) was 104% and the residual activity (ULK1 (human)) was 97.1%.
